PubChem BioAssay AID2060511 (Molecular Pharmacology Branch, DTP, NCI, 2025)

Test system: 422866-222-R5-J1-PDC spheroids with HUVEC/MSC, viability
Assay: Anticancer human tumor 422866-222-R5-J1-PDC patient-derived pancreatic adenocarcinoma cell line growth inhibition [GQUAD]
Settings: for IC50: curve of first compound; for viability, T/C: stronger effect = lower value
Summary of the method: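 Multi-cell-type spheroids of tumor cells with HUVEC and mesenchymal stem cells, treated with drug combinations. Concentrations descend in half-log steps from near clinical Cmax, or from 10 microM where Cmax is unknown; viability read-out.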

[1] = second compound 0.0316 µM, first compound 0.000999 µM
[2] = second compound 0.0316 µM, first compound 0.00316 µM
[3] = second compound 0.0316 µM, first compound 0.00999 µM
[4] = second compound 0.0316 µM, first compound 0.0316 µM
[5] = second compound 0.0316 µM, first compound 0.0999 µM
[6] = second compound 0.0316 µM, first compound 0.316 µM
[7] = second compound 0.1 µM, first compound 0.000999 µM
[8] = second compound 0.1 µM, first compound 0.00316 µM
[9] = second compound 0.1 µM, first compound 0.00999 µM
[10] = second compound 0.1 µM, first compound 0.0316 µM
[11] = second compound 0.1 µM, first compound 0.0999 µM
[12] = second compound 0.1 µM, first compound 0.316 µM
[13] = second compound 0.316 µM, first compound 0.000999 µM
[14] = second compound 0.316 µM, first compound 0.00316 µM
[15] = second compound 0.316 µM, first compound 0.00999 µM
[16] = second compound 0.316 µM, first compound 0.0316 µM
[17] = second compound 0.316 µM, first compound 0.0999 µM
[18] = second compound 0.316 µM, first compound 0.316 µM
[19] = second compound 1 µM, first compound 0.000999 µM
[20] = second compound 1 µM, first compound 0.00316 µM
[21] = second compound 1 µM, first compound 0.00999 µM
[22] = second compound 1 µM, first compound 0.0316 µM
[23] = second compound 1 µM, first compound 0.0999 µM
[24] = second compound 1 µM, first compound 0.316 µM
[25] = second compound 3.16 µM, first compound 0.000999 µM
[26] = second compound 3.16 µM, first compound 0.00316 µM
[27] = second compound 3.16 µM, first compound 0.00999 µM
[28] = second compound 3.16 µM, first compound 0.0316 µM
[29] = second compound 3.16 µM, first compound 0.0999 µM
[30] = second compound 3.16 µM, first compound 0.316 µM
[31] = second compound 10 µM, first compound 0.000999 µM
[32] = second compound 10 µM, first compound 0.00316 µM
[33] = second compound 10 µM, first compound 0.00999 µM
[34] = second compound 10 µM, first compound 0.0316 µM
[35] = second compound 10 µM, first compound 0.0999 µM
[36] = second compound 10 µM, first compound 0.316 µM
[37] = second compound 0.0316 µM, first compound 0.1 µM
[38] = second compound 0.0316 µM, first compound 1 µM
[39] = second compound 0.0316 µM, first compound 3.16 µM
[40] = second compound 0.0316 µM, first compound 10 µM
[41] = second compound 0.1 µM, first compound 0.1 µM
[42] = second compound 0.1 µM, first compound 1 µM
[43] = second compound 0.1 µM, first compound 3.16 µM
[44] = second compound 0.1 µM, first compound 10 µM
[45] = second compound 0.316 µM, first compound 0.1 µM
[46] = second compound 0.316 µM, first compound 1 µM
[47] = second compound 0.316 µM, first compound 3.16 µM
[48] = second compound 0.316 µM, first compound 10 µM
[49] = second compound 1 µM, first compound 0.1 µM
[50] = second compound 1 µM, first compound 1 µM
[51] = second compound 1 µM, first compound 3.16 µM
[52] = second compound 1 µM, first compound 10 µM
[53] = second compound 3.16 µM, first compound 0.1 µM
[54] = second compound 3.16 µM, first compound 1 µM
[55] = second compound 3.16 µM, first compound 3.16 µM
[56] = second compound 3.16 µM, first compound 10 µM
[57] = second compound 10 µM, first compound 0.1 µM
[58] = second compound 10 µM, first compound 1 µM
[59] = second compound 10 µM, first compound 3.16 µM
[60] = second compound 10 µM, first compound 10 µM
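Also: spheroids exposed to compounds for seven days before reading.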
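For viability, T/C in this document: percent viability relative to DMSO vehicle control taken as 100%.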

## CC[C@@]1(O)C(=O)OCc2c1cc1n(c2=O)Cc2cc3c(CN(C)C)c(O)ccc3nc2-1 + Cc1cnc(CNC(=O)c2c(=O)c3ccc(N4CCCN(C)CC4)nc3n3c2sc2ccccc23)cn1
Second compound 0.0316 µM
  IC50: 191 nM
Second compound 0.1 µM
  IC50: > 316 nM
Second compound 0.316 µM
  IC50: > 316 nM
Second compound 1 µM
  IC50: > 316 nM
Second compound 3.16 µM
  IC50: > 316 nM
Second compound 10 µM
  IC50: > 316 nM
[1]
  viability, T/C: 97.1%
[2]
  viability, T/C: 92.6%
[3]
  viability, T/C: 94%
[4]
  viability, T/C: 77.1%
[5]
  viability, T/C: 51.4%
[6]
  viability, T/C: 48.9%
[7]
  viability, T/C: 95.8%
[8]
  viability, T/C: 86.8%
[9]
  viability, T/C: 82.8%
[10]
  viability, T/C: 70.8%
[11]
  viability, T/C: 69.6%
[12]
  viability, T/C: 56.2%
[13]
  viability, T/C: 89.2%
[14]
  viability, T/C: 85%
[15]
  viability, T/C: 87.3%
[16]
  viability, T/C: 80.6%
[17]
  viability, T/C: 80.9%
[18]
  viability, T/C: 58.6%
[19]
  viability, T/C: 78.6%
[20]
  viability, T/C: 81.4%
[21]
  viability, T/C: 76.5%
[22]
  viability, T/C: 81.4%
[23]
  viability, T/C: 83.6%
[24]
  viability, T/C: 74.9%
[25]
  viability, T/C: 79.7%
[26]
  viability, T/C: 80.8%
[27]
  viability, T/C: 83.8%
[28]
  viability, T/C: 81.5%
[29]
  viability, T/C: 90.9%
[30]
  viability, T/C: 74.6%
[31]
  viability, T/C: 82.6%
[32]
  viability, T/C: 88.7%
[33]
  viability, T/C: 81.1%
[34]
  viability, T/C: 83.2%
[35]
  viability, T/C: 88.4%
[36]
  viability, T/C: 60.6%

## O=C(NO)c1cnc(N2CCN(S(=O)(=O)c3ccc4ccccc4c3)CC2)nc1 + Cc1cnc(CNC(=O)c2c(=O)c3ccc(N4CCCN(C)CC4)nc3n3c2sc2ccccc23)cn1
Second compound 0.0316 µM
  IC50: 824 nM
Second compound 0.1 µM
  IC50: 1640 nM
Second compound 0.316 µM
  IC50: 1650 nM
Second compound 1 µM
  IC50: 1730 nM
Second compound 3.16 µM
  IC50: 1460 nM
Second compound 10 µM
  IC50: 574 nM
[4]
  viability, T/C: 89.8%
[37]
  viability, T/C: 75.8%
[6]
  viability, T/C: 60.2%
[38]
  viability, T/C: 43%
[39]
  viability, T/C: 42%
[40]
  viability, T/C: 2.99%
[10]
  viability, T/C: 86.4%
[41]
  viability, T/C: 75.1%
[12]
  viability, T/C: 93.6%
[42]
  viability, T/C: 49.1%
[43]
  viability, T/C: 40.2%
[44]
  viability, T/C: 5.96%
[16]
  viability, T/C: 90.9%
[45]
  viability, T/C: 84%
[18]
  viability, T/C: 85.9%
[46]
  viability, T/C: 52.7%
[47]
  viability, T/C: 39.9%
[48]
  viability, T/C: 6.44%
[22]
  viability, T/C: 71.9%
[49]
  viability, T/C: 86.8%
[24]
  viability, T/C: 82.2%
[50]
  viability, T/C: 63.1%
[51]
  viability, T/C: 33.5%
[52]
  viability, T/C: 4.12%
[28]
  viability, T/C: 70.5%
[53]
  viability, T/C: 91.8%
[30]
  viability, T/C: 63.5%
[54]
  viability, T/C: 56.9%
[55]
  viability, T/C: 35.7%
[56]
  viability, T/C: 0.26%
[34]
  viability, T/C: 72.3%
[57]
  viability, T/C: 74.6%
[36]
  viability, T/C: 65.1%
[58]
  viability, T/C: 33.4%
[59]
  viability, T/C: 21%
[60]
  viability, T/C: 0.26%

## CCc1c2c(nc3ccc(O)cc13)-c1cc3c(c(=O)n1C2)COC(=O)[C@]3(O)CC + Cc1[nH]c2ccc(F)cc2c1-c1nc2c3cccnc3c3ncccc3c2[nH]1
Second compound 0.0316 µM
  IC50: 2.5 nM
Second compound 0.1 µM
  IC50: 2.17 nM
Second compound 0.316 µM
  IC50: < 0.999 nM
Second compound 1 µM
  IC50: 1.99 nM
Second compound 3.16 µM
  IC50: 1.44 nM
Second compound 10 µM
  IC50: < 0.999 nM
[1]
  viability, T/C: 61.3%
[2]
  viability, T/C: 43.6%
[3]
  viability, T/C: 41.5%
[4]
  viability, T/C: 41.4%
[5]
  viability, T/C: 36.3%
[6]
  viability, T/C: 30.3%
[7]
  viability, T/C: 60%
[8]
  viability, T/C: 44.6%
[9]
  viability, T/C: 38%
[10]
  viability, T/C: 34.3%
[11]
  viability, T/C: 38.7%
[12]
  viability, T/C: 28.1%
[13]
  viability, T/C: 52.8%
[14]
  viability, T/C: 40.8%
[15]
  viability, T/C: 39.5%
[16]
  viability, T/C: 45%
[17]
  viability, T/C: 39.2%
[18]
  viability, T/C: 25.9%
[19]
  viability, T/C: 55.8%
[20]
  viability, T/C: 45.6%
[21]
  viability, T/C: 39.9%
[22]
  viability, T/C: 38%
[23]
  viability, T/C: 38.3%
[24]
  viability, T/C: 31.2%
[25]
  viability, T/C: 54.3%
[26]
  viability, T/C: 40.9%
[27]
  viability, T/C: 36.4%
[28]
  viability, T/C: 35.4%
[29]
  viability, T/C: 37.7%
[30]
  viability, T/C: 31.6%
[31]
  viability, T/C: 48.8%
[32]
  viability, T/C: 41.5%
[33]
  viability, T/C: 44%
[34]
  viability, T/C: 40.7%
[35]
  viability, T/C: 34.2%
[36]
  viability, T/C: 27.7%

## COc1ccc([C@@H](O)c2cc(-c3ncnc4cc(N5CCOCC5)ccc34)c(F)cc2Cl)nn1 + Cc1cnc(CNC(=O)c2c(=O)c3ccc(N4CCCN(C)CC4)nc3n3c2sc2ccccc23)cn1
Second compound 0.0316 µM
  IC50: 1390 nM
Second compound 0.1 µM
  IC50: 2050 nM
Second compound 0.316 µM
  IC50: 3660 nM
Second compound 1 µM
  IC50: 2360 nM
Second compound 3.16 µM
  IC50: 1940 nM
Second compound 10 µM
  IC50: 1800 nM
[4]
  viability, T/C: 106%
[37]
  viability, T/C: 82.7%
[6]
  viability, T/C: 78.8%
[38]
  viability, T/C: 47.9%
[39]
  viability, T/C: 41.9%
[40]
  viability, T/C: 35.5%
[10]
  viability, T/C: 94.8%
[41]
  viability, T/C: 87.4%
[12]
  viability, T/C: 68.5%
[42]
  viability, T/C: 57.1%
[43]
  viability, T/C: 47.2%
[44]
  viability, T/C: 39.3%
[16]
  viability, T/C: 97.3%
[45]
  viability, T/C: 85.3%
[18]
  viability, T/C: 72.8%
[46]
  viability, T/C: 60.2%
[47]
  viability, T/C: 54%
[48]
  viability, T/C: 40.4%
[22]
  viability, T/C: 97.3%
[49]
  viability, T/C: 87.4%
[24]
  viability, T/C: 83.4%
[50]
  viability, T/C: 62.8%
[51]
  viability, T/C: 45.1%
[52]
  viability, T/C: 35.5%
[28]
  viability, T/C: 90.9%
[53]
  viability, T/C: 80.1%
[30]
  viability, T/C: 78.5%
[54]
  viability, T/C: 57.6%
[55]
  viability, T/C: 43.6%
[56]
  viability, T/C: 34%
[34]
  viability, T/C: 81.9%
[57]
  viability, T/C: 78%
[36]
  viability, T/C: 70.3%
[58]
  viability, T/C: 55.9%
[59]
  viability, T/C: 44.1%
[60]
  viability, T/C: 31.6%
